Measurements reported in patent US20130096067A1, “DROSOPHILA TUMOR STEM CELL MODEL AND USES THEREOF” (priority 2011, published 2013).
Structures can show the parent of a compound that is named as a salt.

Legend:
[1] = system: Raf-1^gof intestinal tumors; experiment: Luciferase screen of FDA-approved (NCI) drugs in 96-well plates, flies with Raf-1^gof intestinal tumors; format: in vivo, Drosophila; on Avg (3 + 6): test concentration or dose not given here; on Log2 (fold): test concentration or dose not given here
[2] = system: Raf-1^gof intestinal tumors; conditions: assessed three days later; for Log2 (fold) (luciferase activity, log2 of the fold difference relative to DMSO controls) / Fold (luciferase activity, fold difference relative to DMSO controls): screen of 480 ICCB compounds in vials, compounds fed to flies with one-day old Raf-1^gof tumors, esg-Gal4 luciferase; for Fold (luciferase activity, fold difference relative to DMSO controls) / Fold (luciferase activity relative to DMSO controls): averaged from multiple wells; for Log2 (fold) of luciferase activity relative to DMSO controls / Fold (luciferase activity relative to DMSO controls): ICCB compounds fed in vials to flies with one-day old Raf-1^gof tumors; on all read-outs here: test concentration or dose not given here
[3] = average of Day 3 and Day 6 fold
[4] = log2 of the Day 3 fold difference in luciferase relative to DMSO controls
[5] = luciferase activity relative to DMSO controls, single dose of drug for three days, 96-well plates
[6] = six-day protocol: single dose for three days, then another dose for three more days

Row | Molecule | Avg (3 + 6) [1, 3] [fold] | Log2 (fold) [1, 4] | Day 3 Fold [1, 5] [fold] | Day 6 Fold [1, 6] [fold] | other results
1 | O=P1(N(CCCl)CCCl)NCCCO1 (stereo not drawn) [Cyclophosphamide] | – | – | – | – | Avg (3 + 6) ([1]; in vivo): 0.857 fold; Day 3 Fold ([1]; in vivo): 0.982 fold; Day 6 Fold ([1]; in vivo): 0.732 fold; Log2 (fold) ([1]; in vivo): −0.025
2 | Nc1nc2[nH]cc(CCc3ccc(C(=O)N[C@@H](CCC(=O)O)C(=O)O)cc3)c2c(=O)[nH]1 [Pemetrexed] | 0.365 | −0.783 | 0.581 | 0.149 | –
3 | CC(=O)O[C@]1(C(C)=O)CC[C@H]2[C@@H]3C=C(C)C4=CC(=O)CC[C@]4(C)[C@H]3CC[C@@]21C [Megestrol acetate] | 1.219 | 0.418 | 1.336 | 1.101 | –
4 | CC/C(=C(\c1ccccc1)c1ccc(OCCN(C)C)cc1)c1ccccc1 [Tamoxifen citrate] | 0.919 | −0.046 | 0.968 | 0.869 | –
5 | CC1=C(/C=C/C(C)=C/C=C/C(C)=C/C(=O)O)C(C)(C)CCC1 [Tretinoin] | 0.871 | −0.040 | 0.972 | 0.769 | –
6 | Cc1cn(-c2cc(NC(=O)c3ccc(C)c(Nc4nccc(-c5cccnc5)n4)c3)cc(C(F)(F)F)c2)cn1 [Nilotinib] | 0.804 | −0.615 | 0.653 | 0.956 | –
7 | N#Cc1ccc(C(c2ccc(C#N)cc2)n2cncn2)cc1 [Letrozole] | 1.302 | 0.337 | 1.263 | 1.342 | –
8 | N[C@@H](Cc1ccc(N(CCCl)CCCl)cc1)C(=O)O [Melphalan] | 0.939 | 0.001 | 1.001 | 0.876 | –
9 | CNC(=O)c1cc(Oc2ccc(NC(=O)Nc3ccc(Cl)c(C(F)(F)F)c3)cc2)ccn1 [Sorafenib] | – | – | – | – | Avg (3 + 6) ([1]; in vivo): 1.046 fold; Day 3 Fold ([1]; in vivo): 0.752 fold; Day 6 Fold ([1]; in vivo): 1.339 fold; Log2 (fold) ([1]; in vivo): −0.410
10 | NCCCNCCSP(=O)(O)O [Amifostine] | 1.239 | 0.248 | 1.187 | 1.291 | –
11 | Cc1ccc(NC(=O)c2ccc(CN3CCN(C)CC3)cc2)cc1Nc1nccc(-c2cccnc2)n1 [Imatinib] | 0.674 | −0.558 | 0.679 | 0.670 | –
12 | NC(=O)NO [Hydroxyurea] | 0.990 | −0.184 | 0.880 | 1.099 | –
13 | CC(=O)O[C@@]12CO[C@@H]1C[C@H](O)[C@@]1(C)C(=O)[C@H](O)C3=C(C)[C@@H](OC(=O)[C@H](O)[C@@H](NC(=O)OC(C)(C)C)c4ccccc4)C[C@@](O)([C@@H](OC(=O)c4ccccc4)[C@H]21)C3(C)C [Docetaxel] | 0.514 | −0.887 | 0.541 | 0.487 | –
14 | C1CN1c1nc(N2CC2)nc(N2CC2)n1 [Triethylenemelamine (TEM), Triethylenemelamine] | – | – | – | – | Avg (3 + 6) ([1]; in vivo): 0.301 fold; Day 3 Fold ([1]; in vivo): 0.349 fold; Day 6 Fold ([1]; in vivo): 0.253 fold; Log2 (fold) ([1]; in vivo): −1.519
15 | CCC1=C[C@@H]2CN(C1)Cc1c([nH]c3ccccc13)[C@@](C(=O)OC)(c1cc3c(cc1OC)N(C)[C@H]1[C@@](O)(C(=O)OC)[C@H](OC(C)=O)[C@]4(CC)C=CCN5CC[C@]31[C@@H]54)C2 [Vinorelbine tartrate] | 0.761 | −0.190 | 0.877 | 0.645 | –
16 | CC[C@@]1(O)C(=O)OCc2c1cc1n(c2=O)Cc2cc3c(CN(C)C)c(O)ccc3nc2-1 [Topotecan HCl] | 0.233 | −1.600 | 0.330 | 0.137 | –
17 | S=P(N1CC1)(N1CC1)N1CC1 [Thiotepa] | – | – | – | – | Avg (3 + 6) ([1]; in vivo): 0.344 fold; Day 3 Fold ([1]; in vivo): 0.353 fold; Day 6 Fold ([1]; in vivo): 0.335 fold; Log2 (fold) ([1]; in vivo): −1.501
18 | CCCCCOC(=O)Nc1nc(=O)n([C@@H]2O[C@H](C)[C@@H](O)[C@H]2O)cc1F [Capecitabine] | 1.017 | −0.078 | 0.947 | 1.087 | –
19 | Nc1cccc2c1CN(C1CCC(=O)NC1=O)C2=O (stereo not drawn) [Lenalidomide] | 0.853 | −0.117 | 0.922 | 0.784 | –
20 | CCN(CC)CCCC(C)Nc1c2ccc(Cl)cc2nc2ccc(OC)cc12 (stereo not drawn) [Acrichine] | 1.046 | −0.212 | 0.863 | 1.229 | –
21 | CCCCC(=O)OCC(=O)[C@]1(O)Cc2c(O)c3c(c(O)c2[C@@H](O[C@H]2C[C@H](NC(=O)C(F)(F)F)[C@H](O)[C@H](C)O2)C1)C(=O)c1c(OC)cccc1C3=O [Valrubicin] | 0.778 | −0.190 | 0.876 | 0.679 | –

Row | Molecule | Avg (3 + 6) [1, 3] [fold] | Log2 (fold) [1, 4] | Day 3 Fold [1, 5] [fold] | Day 6 Fold [1, 6] [fold] | other results
22 | Nc1ncn([C@H]2C[C@H](O)[C@@H](CO)O2)c(=O)n1 [Decitabine] | 0.569 | −1.077 | 0.474 | 0.663 | –
23 | COc1c2occc2cc2ccc(=O)oc12 [Methoxsalen] | 0.927 | −0.016 | 0.989 | 0.866 | –
24 | CS(=O)(=O)OCCCCOS(C)(=O)=O [Busulfan] | 0.936 | 0.166 | 1.122 | 0.750 | –
25 | CNNCc1ccc(C(=O)NC(C)C)cc1 [Procarbazine] | 1.119 | 0.470 | 1.385 | 0.854 | –
26 | CN(C)/N=N/c1[nH]cnc1C(N)=O [Dacarbazine] | 0.960 | −0.010 | 0.993 | 0.927 | –
27 | Cc1nc(Nc2ncc(C(=O)Nc3c(C)cccc3Cl)s2)cc(N2CCN(CCO)CC2)n1 [Dasatinib] | 1.085 | 0.521 | 1.435 | 0.736 | –
28 | Cc1ccc(-c2cc(C(F)(F)F)nn2-c2ccc(S(N)(=O)=O)cc2)cc1 [Celecoxib] | 0.755 | −0.565 | 0.676 | 0.834 | –
29 | Nc1ccn([C@@H]2O[C@H](CO)[C@@H](O)C2(F)F)c(=O)n1 [Gemcitabine HCl] | 0.104 | −2.666 | 0.158 | 0.051 | –
30 | O=NN(CCCl)C(=O)NC1CCCCC1 [Lomustine, CCNU, Lomustine] | 0.712 | – | – | – | Day 3 Fold ([1]; po, 72 h): 0.651 fold; Log2 (fold) ([1]; po, 72 h): −0.619
31 | O=c1[nH]c(=O)n([C@H]2C[C@H](O)[C@@H](CO)O2)cc1F [Floxuridine] | 0.149 | −2.204 | 0.217 | 0.080 | –
32 | N.N.O=C([O-])C1(C(=O)[O-])CCC1.[Pt+2] [Carboplatin] | 1.159 | 0.059 | 1.042 | 1.276 | –
33 | Arsenic trioxide | 0.981 | −0.074 | 0.950 | 1.012 | –
34 | CC(C)(C#N)c1cc(Cn2cncn2)cc(C(C)(C)C#N)c1 [Anastrozole] | 1.000 | −0.053 | 0.964 | 1.036 | –
35 | COc1cccc2c1C(=O)c1c(O)c3c(c(O)c1C2=O)C[C@@](O)(C(=O)CO)C[C@@H]3O[C@H]1C[C@H](N)[C@H](O)[C@H](C)O1 [Doxorubicin HCl] | 1.084 | −0.090 | 0.939 | 1.228 | –
36 | CS(=O)(=O)CCNCc1ccc(-c2ccc3ncnc(Nc4ccc(OCc5cccc(F)c5)c(Cl)c4)c3c2)o1 [Lapatinib] | 0.976 | −0.097 | 0.935 | 1.017 | –
37 | CC1=C(CC/C(C)=C/CCC2=CC[C@H](C3=CC(=O)O[C@H]3O)O[C@H]2O)C(C)(C)CCC1 [Manoalide] | – | – | – | – | Log2 (fold) (luciferase activity, log2 of the fold difference relative to DMSO controls) [2]: −0.490; Fold (luciferase activity, fold difference relative to DMSO controls) [2]: 0.712
38 | COCc1nc2c([nH]1)c(=O)n(C)c(=O)n2CC(C)C [8-methoxymethyl-IBMX] | – | – | – | – | Log2 (fold) of luciferase activity relative to DMSO controls [2]: 0.006; Fold (luciferase activity relative to DMSO controls) [2]: 1.004 fold
39 | NC(N)=NCCNS(=O)(=O)c1cccc2cnccc12 [HA-1004] | – | – | – | – | Log2 (fold) (luciferase activity, log2 of the fold difference relative to DMSO controls) [2]: −0.372; Fold (luciferase activity, fold difference relative to DMSO controls) [2]: 0.773
40 | c1ccc(CN(CCN(Cc2ccccn2)Cc2ccccn2)Cc2ccccn2)nc1 [TPEN] | – | – | – | – | Log2 (fold) (luciferase activity, log2 of the fold difference relative to DMSO controls) [2]: −0.717; Fold (luciferase activity, fold difference relative to DMSO controls) [2]: 0.608
41 | COC(=O)C1=C(C)NC(C)=C([N+](=O)[O-])C1c1ccccc1C(F)(F)F (stereo not drawn) [BAY K-8644] | – | – | – | – | Log2 (fold) of luciferase activity relative to DMSO controls [2]: −0.027; Fold (luciferase activity relative to DMSO controls) [2]: 0.982 fold
